Measured values from patent US20050014766A1, “Use of n-(indolecarbonyl-)piperazine derivatives” (priority 2002, published 2005).

Tests used:
rats = experiment: T-labyrinth learning and memory model in rats; format: in vivo, rat; details: after denial of food
Text: In a learning and memory model in rats, the T-labyrinth method is used, in which rats, after denial of food, have to learn to find a reward in the arm of the labyrinth which is opposite the arm in which the reward was offered in the previous experiment (Moran, P. et al., Brain Res. 1992; 569:156-158).

[1] = system: recombinant in-bred mice (crossing of the strains C57ML/6J and DBA/2J); experiment: pre-pulse inhibition in recombinant in-bred mice with inherently poor pre-pulse inhibition; format: in vivo; details: recombinant mouse strain with poor pre-pulse inhibition
Text: A typical animal model of schizotypical personality disorders and the prevention of schizophrenia in first-degree relatives is restricted pre-pulse inhibition. Pre-pulse inhibition is a non-species-specific phenomenon in which the normal reflex reactions to discrete sensory events are reduced if slight prior stimulation has been carried out in advance; pre-pulse inhibition can be used to assess sensomotory gating processes. In patients with schizotypical personality disorders and their first-degree relatives (in whom there is a high risk of the development of schizotypical personality disorders), the normal function of pre-pulse inhibition is disturbed (Braff, D. et al., Psychophysiology, 1978; 15:339-343; Braff, D., Arch Gen Psychiatry, 1992; 49:206-215; Bolino, F. et al., Biol Psychiatry, 1994; 36:670-679). Recombinant in-bred mice having an inherently poor pre-pulse inhibition (crossing of the strains C57ML/6J and DBA/2J) represent a corresponding animal model (McCaughran, J. A. Jr. et al., Psychopharmacology 1997; 134:131-140; McCaughran, J. A. Jr. et al., Behav. Genetics, 1999; 29:21-30.).

mice [2] = experiment: hyperlocomotory activity induced by dizocilpine; format: in vivo, mouse
Text: Animal models of treatment-resistant schizophrenia and psychosis in tardive dyskinesia are so-called stimulant-induced psychoses (Ellison, G., Brain Res. Rev. 1994; 137:193-197). Chronic misuse of ‘dopamine agonists’, such as, for example, amphetamine or cocaine, or antagonists of N-methyl-D-aspartate (NMDA), such as, for example, ketamine, phencyclidine and dizocilpine, causes a syndrome of behavioural effects which has many features in common with the symptom complex of schizophrenia, i.e. these substances induce schizophrenia-like symptoms in healthy people and accelerate psychotic reactions in stabilised schizophrenic patients (Luby, E. D. et al., Am. Med. Assoc. Arch. Neurol. Psychiatry, 1959; 119:61-67; Lahti, A. C. et al., Neuropsychopharmacology, 1995; 13:9-19; Malhotra, A. K. et al., Neuropsychopharmacology, 1996; 14:301-307; Adler, C. M. et al., Biol. Psychiatry 1998; 43:811-816). In rodents, these stimulants cause extreme hyperlocomotory activity (Schaefer, G. J. et al., Neuropharmacology 1984; 23:909-914; Millan, M. J. et al., Eur. J. Neurosci. 1999; 11:419-432; O'Neill, M. F. et al., Psychopharmacology, 1999, 145:237-250).

mice [3] = experiment: four plate test (model of acute stress anxiety); format: in vivo, mouse; details: 5 minute test period
Text: A typical model of acute stress anxiety is the “four plate test” as described by C. Aron et al., Neuropharmacology 1971, 10: 459-469.
The device consists of a small box whose base is composed of four metal plates. Each time the mouse moves from one plate to the next, it receives a short current pulse on the foot, thus reducing the investigative behaviour. The number of changes from one plate to the next which occur with punishment (i.e. the number of current pulses accepted by the animal) is recorded over a test period of 5 minutes.

mice [4] = experiment: light-dark choice test (model of generalised anxiety disorders); format: in vivo, mouse; details: period of 5 minutes
Experimental: A typical model of generalised anxiety disorders is the “light-dark choice test” as described by J. N. Crawly, Pharmacol. Biochem Behav. 1981, 15: 695-699.
The corresponding device for the selection of brightness or darkness consists of two boxes connected to one another, one box being darkened and the other being brightly illuminated. A mouse is placed in one of the boxes, and it is measured how much time the mouse spends in the illuminated box over a period of 5 minutes. Normal mice only go into the illuminated compartment rarely and spend almost all the time in the dark compartment.

monkeys = experiment: DMTS method (delayed matching to sample) in monkeys; format: in vivo, monkey
Text: Of the learning models, the DMTS method (DMTS=delayed matching to sample) in monkeys (Buccafusco, J. J. et al., Psychopharmacology, 1995; 120: 256-266; Buccafusco, J. J. et al., Drug Dev. Res., 1996; 38: 196-203; Prendergast, M. A. et al., Pharmacol. Biochem. Behav., 1997; 56: 81-87) is potentially of interest since the various aspects of learning and memory can be measured in this method. An experiment begins with the illumination of a sample key provided with one of three coloured discs. The monkeys are taught to press the illuminated sample key in order to initiate the experiment. After the delay interval, the two keys available for selection illuminate, but not the sample key. One of the two keys available for selection is offered with the colour that the sample key had before the delay interval, while the other (wrong) key available for selection has one of the two other colours. If the monkey makes the correct assignment (i.e. if it presses the key available for selection which has the same colour as the stimulus key), the response is rewarded. […] Finally, all stimulus equalisation measures were assigned to the delay duration. […]

mice [5] = experiment: isolation-induced fighting behaviour in mice (aggression model); format: in vivo, mouse
Text: A typical animal model of aggression is the isolation-induced fighting behaviour in mice (Paivarinta, P., Pharmacol. Biochem. Behav., 1992; 42: 35-39; Haller, J. et al., Psychopharmacology, 1996; 126: 345-350). […] The number of bites or bite attacks can be used as a measure of the aggression.

In the case of N#Cc1c[nH]c2c(C(=O)N3CCN(CCc4ccc(F)cc4)CC3)cccc12 [(3-cyano-1H-indol-7-yl)[4-(4-fluorophenethyl)piperazin-1-yl]methanone], the “learning and memory in the T-labyrinth” value (rats) was “has memory-promoting effects in the learning process and facilitates better and faster learning with a shorter performance time”, the “deficits in pre-pulse inhibition” value [1] was “significantly reduces the deficits in pre-pulse inhibition” and the “hyperlocomotory activity induced by dizocilpine” value (mice [2]) was “significantly reduces hyperlocomotory activity”. For the same molecule, the “number of changes with punishment” value (mice [3]) was “increases the number of changes with punishment”, the “time spent by the mice in the illuminated compartment” value (mice [4]) was “increases the time spent by the mice in the illuminated compartment” and the “DMTS hit rate and general aspects of working memory” value (monkeys) was “clearly improves the DMTS hit rate”. For the same molecule, the isolation-induced fighting behaviour (mice [5]) was “reduces the isolation-induced fighting behaviour”.
